Legend:
[1] = AUC (0 to infinity) in ICR mouse at 10 mg/kg, po measured upto 24 hrs by LC-MS/MS analysis; type: ADME, organism-based; parameters: time < 24 hrs, dose 10 mg/kg, route po; conditions: in vivo
[2] = Oral bioavailability in ICR mouse at 10 mg/kg measured upto 24 hrs by LC-MS/MS analysis; type: ADME, organism-based; conditions: in vivo
[3] = Oral bioavailability in dog plasma at 10 mg/kg measured upto 24 hrs by LC-MS/MS analysis; type: ADME, organism-based, Canis lupus familiaris
[4] = Toxicity against CB.17 SCID mouse xenografted with human TMD8 cells assessed as effect on liver at 100 mg/kg/day, po for 21 consecutive days by H and E staining method; type: organism-based; conditions: in vivo, 504 h, time 21 day
[5] = Toxicity against CB.17 SCID mouse xenografted with human TMD8 cells assessed as effect on spleen at 100 mg/kg/day, po for 21 consecutive days by H and E staining method; type: organism-based; conditions: in vivo, 504 h, time 21 day
[6] = Volume of distribution at steady state in dog plasma at 1 mg/kg, iv measured upto 24 hrs by LC-MS/MS analysis; type: ADME, organism-based, Canis lupus familiaris; conditions: read-out: Vdss
[7] = Toxicity against CB.17 SCID mouse xenografted with human TMD8 cells assessed as body weight loss at 50 to 100 mg/kg/day, po for 21 consecutive days; type: organism-based; conditions: in vivo, 504 h, dose 50-100 mg/kg/day, time 21 day
[8] = AUC (0 to infinity) in ICR mouse at 2 mg/kg, iv measured upto 24 hrs by LC-MS/MS analysis; type: ADME, organism-based; parameters: time < 24 hrs, dose 2 mg/kg, route iv; conditions: in vivo
[9] = Toxicity against CB.17 SCID mouse xenografted with human TMD8 cells assessed as effect on kidney at 100 mg/kg/day, po for 21 consecutive days by H and E staining method; type: organism-based; conditions: in vivo, 504 h, time 21 day
[10] = Half life in ICR mouse at 10 mg/kg, po measured upto 24 hrs by LC-MS/MS analysis; type: ADME, organism-based; conditions: in vivo
[11] = MRT in monkey plasma at 10 mg/kg, po measured upto 24 hrs by LC-MS/MS analysis; type: ADME, organism-based, Macaca fascicularis; conditions: cynomolgus monkey
[12] = Volume of distribution at steady state in monkey plasma at 1 mg/kg, iv measured upto 24 hrs by LC-MS/MS analysis; type: ADME, organism-based, Macaca fascicularis; conditions: cynomolgus monkey, read-out: Vdss
[13] = AUC (0 to infinity) in monkey plasma at 1 mg/kg, iv measured upto 24 hrs by LC-MS/MS analysis; type: ADME, organism-based, Macaca fascicularis; parameters: time < 24 hrs, dose 1 mg/kg, route iv; conditions: cynomolgus monkey
[14] = Oral bioavailability in monkey plasma at 10 mg/kg measured upto 24 hrs by LC-MS/MS analysis; type: ADME, organism-based, Macaca fascicularis; conditions: cynomolgus monkey
[15] = MRT in dog plasma at 1 mg/kg, iv measured upto 24 hrs by LC-MS/MS analysis; type: ADME, organism-based, Canis lupus familiaris
[16] = Cmax in monkey plasma at 10 mg/kg, po measured upto 24 hrs by LC-MS/MS analysis; type: ADME, organism-based, Macaca fascicularis; parameters: time < 24 hrs, dose 10 mg/kg, route po; conditions: cynomolgus monkey
[17] = Clearance in ICR mouse at 2 mg/kg, iv measured upto 24 hrs by LC-MS/MS analysis; type: ADME, organism-based; conditions: in vivo
[18] = MRT in monkey plasma at 1 mg/kg, iv measured upto 24 hrs by LC-MS/MS analysis; type: ADME, organism-based, Macaca fascicularis; conditions: cynomolgus monkey
[19] = MRT in ICR mouse at 100 mg/kg, po measured upto 24 hrs by LC-MS/MS analysis; type: ADME, organism-based; conditions: in vivo
[20] = Half life in ICR mouse at 2 mg/kg, iv measured upto 24 hrs by LC-MS/MS analysis; type: ADME, organism-based; conditions: in vivo
[21] = MRT in dog plasma at 10 mg/kg, po measured upto 24 hrs by LC-MS/MS analysis; type: ADME, organism-based, Canis lupus familiaris
[22] = Cmax in ICR mouse at 10 mg/kg, po measured upto 24 hrs by LC-MS/MS analysis; type: ADME, organism-based; parameters: dose 10 mg/kg, time < 24 hrs, route po; conditions: in vivo
[23] = Half life in monkey plasma at 1 mg/kg, iv measured upto 24 hrs by LC-MS/MS analysis; type: ADME, organism-based, Macaca fascicularis; conditions: cynomolgus monkey
[24] = Oral bioavailability in ICR mouse at 100 mg/kg measured upto 24 hrs by LC-MS/MS analysis; type: ADME, organism-based; conditions: in vivo
[25] = Clearance in dog plasma at 1 mg/kg, iv measured upto 24 hrs by LC-MS/MS analysis; type: ADME, organism-based, Canis lupus familiaris; conditions: in vivo
[26] = Half life in ICR mouse at 100 mg/kg, po measured upto 24 hrs by LC-MS/MS analysis; type: ADME, organism-based; conditions: in vivo
[27] = AUC (0 to infinity) in dog plasma at 1 mg/kg, iv measured upto 24 hrs by LC-MS/MS analysis; type: ADME, organism-based, Canis lupus familiaris; parameters: dose 1 mg/kg, time < 24 hrs, route iv
[28] = Aqueous solubility of the compound; type: physicochemical; conditions: aqueous medium
[29] = MRT in ICR mouse at 2 mg/kg, iv measured upto 24 hrs by LC-MS/MS analysis; type: ADME, organism-based; conditions: in vivo
[30] = Cmax in ICR mouse at 100 mg/kg, po measured upto 24 hrs by LC-MS/MS analysis; type: ADME, organism-based; parameters: time < 24 hrs, dose 100 mg/kg, route po; conditions: in vivo
TMD8 = assay: In vivo antitumor activity against TMD8 cells xenografted in CB.17 SCID mouse assessed as tumor growth inhibition at 100 mg/kg/day, po for 21 consecutive days measured on day 21 by Vernier caliper relative to control; type: functional, Homo sapiens; conditions: TMD8, 504 h, time 21 day, read-out: TGI
[31] = AUC (0 to infinity) in dog plasma at 10 mg/kg, po measured upto 24 hrs by LC-MS/MS analysis; type: ADME, organism-based, Canis lupus familiaris; parameters: time < 24 hrs, dose 10 mg/kg, route po
[32] = AUC (0 to infinity) in monkey plasma at 10 mg/kg, po measured upto 24 hrs by LC-MS/MS analysis; type: ADME, organism-based, Macaca fascicularis; parameters: time < 24 hrs, dose 10 mg/kg, route po; conditions: cynomolgus monkey
[33] = Half life in dog plasma at 1 mg/kg, iv measured upto 24 hrs by LC-MS/MS analysis; type: ADME, organism-based, Canis lupus familiaris
[34] = Cmax in dog plasma at 10 mg/kg, po measured upto 24 hrs by LC-MS/MS analysis; type: ADME, organism-based, Canis lupus familiaris; parameters: time < 24 hrs, dose 10 mg/kg, route po
[35] = Half life in dog plasma at 10 mg/kg, po measured upto 24 hrs by LC-MS/MS analysis; type: ADME, organism-based, Canis lupus familiaris
[36] = Toxicity against CB.17 SCID mouse xenografted with human TMD8 cells assessed as effect on heart at 100 mg/kg/day, po for 21 consecutive days by H and E staining method; type: organism-based; conditions: in vivo, 504 h, time 21 day
[37] = Half life in monkey plasma at 10 mg/kg, po measured upto 24 hrs by LC-MS/MS analysis; type: ADME, organism-based, Macaca fascicularis; conditions: cynomolgus monkey
[38] = MRT in ICR mouse at 10 mg/kg, po measured upto 24 hrs by LC-MS/MS analysis; type: ADME, organism-based; conditions: in vivo
[39] = Toxicity against CB.17 SCID mouse xenografted with human TMD8 cells assessed as effect on lung at 100 mg/kg/day, po for 21 consecutive days by H and E staining method; type: organism-based; conditions: in vivo, 504 h, time 21 day
[40] = AUC (0 to infinity) in ICR mouse at 100 mg/kg, po measured upto 24 hrs by LC-MS/MS analysis; type: ADME, organism-based; parameters: dose 100 mg/kg, time < 24 hrs, route po; conditions: in vivo
[41] = Clearance in monkey plasma at 1 mg/kg, iv measured upto 24 hrs by LC-MS/MS analysis; type: ADME, organism-based, Macaca fascicularis; conditions: cynomolgus monkey, in vivo

AUC(0-inf) [1]: 2670 ng·h/mL
bioavailability [2]: 45.6%
bioavailability [3]: 58.9%
Vd [6]: 0.55 L/kg
AUC(0-inf) [8]: 1250 ng·h/mL
half-life [10]: 1.31 h
MRT [11]: 8.28 h
Vd [12]: 0.34 L/kg
AUC(0-inf) [13]: 15700 ng·h/mL
bioavailability [14]: 27.6%
MRT [15]: 2.26 h
Cmax [16]: 8520 ng/mL
clearance [17]: 27.2 mL/min/kg
MRT [18]: 3.41 h
MRT [19]: 0.897 h
half-life [20]: 0.427 h
MRT [21]: 2.71 h
Cmax [22]: 3960 ng/mL
half-life [23]: 4.31 h
bioavailability [24]: 91.8%
clearance [25]: 6.72 mL/min/kg
half-life [26]: 1.63 h
AUC(0-inf) [27]: 2550 ng·h/mL
solubility [28]: > 100 mg/mL
MRT [29]: 0.402 h
Cmax [30]: 58300 ng/mL
AUC(0-inf) [31]: 15100 ng·h/mL
AUC(0-inf) [32]: 53200 ng·h/mL
half-life [33]: 1.65 h
Cmax [34]: 4740 ng/mL
half-life [35]: 1.51 h
half-life [37]: 9.14 h
MRT [38]: 0.919 h
AUC(0-inf) [40]: 57200 ng·h/mL
clearance [41]: 1.35 mL/min/kg
SMILES: Cl.Nc1ccccc1NC(=O)c1ccc(CN2CCC/C(=C\c3ccccn3)C2=O)cc1
Activity [4]: Non-Toxic
Activity [5]: Non-Toxic
Activity [7]: Non-Toxic
Activity [9]: Non-Toxic
inhibition in vivo at 100 mg/kg/day (TMD8): 77%
Activity [36]: Non-Toxic
Activity [39]: Non-Toxic

Reference: ChEMBL document CHEMBL5154672, “Design and synthesis of HDAC inhibitors to enhance the therapeutic effect of diffuse large B-cell lymphoma by improving metabolic stability and pharmacokinetic characteristics” (Eur J Med Chem, 2022)
